Assay [1] has as its system CCNE1-amplified cell lines (COV318, OVCAR3). The experiment in a line: Cell cycle analysis by FACS upon CDK4/6 inhibition, CCNE1-amplified cell lines. The assay is classed as cell-based, human. On the procedure: (§1) The effect of CDK4/6-inhibition in CCNE1-amplified versus CCNE1-non-amplified cell lines was evaluated.
(§2) A similar experiment was performed in a larger set of CCNE1-amplified cell lines (COV318 and OVCAR3) and CCNE1-non-amplified cell lines (COV504, OV56, and Igrov1) (FIG. 6).
(§3) The complete growth medium was supplemented with 10% FBS, 0.1 mM non-essential amino acids, 2 mM L-glutamine, 100 units/mL penicillin G and 100 μg/mL streptomycin in 37° C. humidified incubator and an atmosphere of 5% CO2 in air. Fu-OV1 line was purchased from Leibniz-Institute DSMZ—German Collection of Microorganisms and Cell Cultures; MKN1 was purchased from Japanese Cancer Research Resources Bank; and the rest of cell lines were purchased from American Type Culture Collection.
(§4) Bulk DNA was stained with DAPI. Compound-treated and DMSO treated control cells were acquired with CytoFlex (Beckman Coulter) and were analyzed using the FlowJo software.
(In general: In flow cytometry, cells or beads pass a laser one at a time.)

In assay [2] the test system is Rb phosphorylated on serine 780 in CCNE1 amplified COV318 cells. The experiment in a line: CDK2 pRb (S780) HTRF cellular assay. The format is cell-based. The following applies: Homo sapiens, overnight treatment, read-out: IC50 in p-RB S780 HTRF cellular assay. On the procedure: CDK2 pRb (5780) HTRF cellular assay enables the quantitative detection of Rb phosphorylated on […] in CCNE1 amplified COV318 cells. The assay comprised two antibodies: Europium cryptate labeled anti-Phospho-Rb […] antibody (donor) and d2 labeled anti-Rb antibody (acceptor). In brief, COV318 cells were seeded into the wells of 96-well plate at a density of 25,000 per well with 9-point, 3-fold serial diluted compounds and cultured overnight at 37 degree with 5% CO2. The final concentrations of compounds start from 3 μM. […] After 2h of incubation at room temperature, HTRF signals were measured on the PHERAstar microplate reader (BMG Labtech), using 340 nm as excitation wavelength, a 620 nm filter for the Europium donor fluorescence, and a 665-nm filter for the acceptor fluorescence detection. HTRF signals were calculated as the HTRF ratio (ratio of fluorescence measured at 665 nm and 620 nm)×10000.

The test system of assay [3] is CCNE1-non-amplified cell lines (COV504, OV56, Igrov1). The experiment in a line: Cell cycle analysis by FACS upon CDK4/6 inhibition, CCNE1-non-amplified cell lines. The assay is classed as cell-based, human. How it is done: as §1, §2, §3, §4
Assay [4] relates to Rb phosphorylation at S780 in CCNE1-non-amplified cell lines (COV504 and OV56). Nature of the assay: Western blot of Rb phosphorylation at S780, CCNE1-non-amplified cell lines. The format is cell-based, human. Conditions: various doses, 1 or 15 hours. How it is done: (§5) The effect of CDK4/6-inhibition on Rb phosphorylation at 5780 in CCNE1-amplified versus CCNE1-non-amplified cell lines was evaluated. […] One or 15 hours after treatment, the cells were harvested and total protein was extracted and analyzed by western blot (FIG. 8).
(§6) Whole cell extracts were prepared using RIPA buffer (Thermo Scientific, 89900) with a Halt Protease and Phosphatase Inhibitor Cocktail (Thermo Scientific, 78440). Protein concentration was quantified with a BCA Protein Assay Kit (Thermo Scientific, 23225) and 40 μg of protein lysates were loaded for SDS-PAGE using precast gradient gels (Bio-Rad, Hercules, No. 456-1094). Samples were diluted in 5× Laemmli buffer (300 mM Tris-HCl pH 6.8, 10% SDS (w/v), 5% 2-mercaptoethanol, 25% glycerol (v/v), 0.1% bromophenol blue w/v) and boiled for 5 minutes. […] of proteins were separated by 8-15% SDS-PAGE and transferred onto polyvinylidene fluoride (PVDF) membranes. Unspecific binding sites on the PVDF membranes were blocked with 5% non-fat milk in TBST (20 mM Tris-HCl, pH 7.6, 137 mM NaCl, 1% Tween-20). […] Images were captured by Luminescence/Fluorescence Imaging System Odyssey CLx Imager (LI-COR).
For orientation: A western blot detects proteins with antibodies after separation by electrophoresis.

Assay [5] deals with Rb phosphorylation at S780 in CCNE1-amplified cell lines (OVCAR3 and COV318). Nature of the assay: Western blot of Rb phosphorylation at S780, CCNE1-amplified cell lines. The format is cell-based, human. The following applies: various doses, 1 or 15 hours. On the procedure:
as §5, §6

The test system of assay [6] is CCNE1 amplified COV318 cells. The experiment in a line: Cell cycle analysis by FACS after p16 knockdown and CDK2 inhibitor treatment. The format is cell-based, human. The following applies: 100 nM, 16 hours. On the procedure: To confirm the role of p16 in CDK2-sensitivity of CCNE-amplified cells, COV318 cells were treated with control or p16-specific siRNA.
Human cyclin E1 (CCNE1) amplified ovarian cell lines OVCAR3, COV318, Fu-OV1, endometrial cell line KLE, gastric cell lines MKN1, AGS, NCIN87, and CCNE1 non-amplified ovarian cell lines COV504, OV56, Igrov1 were cultured in RPMI 1640 medium. The complete growth medium was supplemented with 10% FBS, 0.1 mM non-essential amino acids, 2 mM L-glutamine, 100 units/mL penicillin G and 100 μg/mL streptomycin in 37° C. humidified incubator and an atmosphere of 5% CO2 in air. Fu-OV1 line was purchased from Leibniz-Institute DSMZ—German Collection of Microorganisms and Cell Cultures; MKN1 was purchased from Japanese Cancer Research Resources Bank; and the rest of cell lines were purchased from American Type Culture Collection. For transfection, cells were seeded into 6-well for 24 hours and transiently transfected by Lipofectamine 2000 Reagent (Thermo Fisher, 11668027). […]
Bulk DNA was stained with DAPI. Compound-treated and DMSO treated control cells were acquired with CytoFlex (Beckman Coulter) and were analyzed using the FlowJo software. […]

The structures appear in SMILES notation.

As usually defined, the IC50 is the concentration that inhibits the measured activity by half. As for `CC(=O)c1c(C)c2cnc(Nc3ccc(N4CCNCC4)cn3)nc2n(C2CCCC2)c1=O` [Palbociclib], the “Inhibition of proliferation (cell cycle analysis by FACS)” value in assay [1] (CCNE1-amplified cells (OVCAR3), increasing concentrations, 16 hours) is listed as “not in CCNE1-amplified cells”; in assay [3] (CCNE1-non-amplified cells (COV504), increasing concentrations, 16 hours) it was “dose-dependent inhibition of the proliferation”. Further, the “Percentage of cells at the S phase as compared to DMSO” value in assay [1] (COV318 and OVCAR3, 16 hours after treatment) is “not significantly different”; in assay [3] (COV504, OV56, Igrov1, 16 hours after treatment), “decreased in CCNE1-non-amplified cell lines in a dose-dependent fashion”. In addition, the IC50 in assay [2] is > 3000 nM. Moreover, the entries for the “Rb phosphorylation at S780 (western blot)” value in assay [4] and in assay [5] were “blocked Rb phosphorylation” and “not in CCNE1-amplified cell lines”, respectively.

For `C[C@@]1(O)CCC[C@H]1n1c(=O)ccc2cnc(NC3CCN(S(C)(=O)=O)CC3)nc21` [Compound A, 8-((1R,2R)-2-hydroxy-2-methylcyclopentyl)-2-((1-(methylsulfonyl)piperidin-4-yl)amino)pyrido[2,3-d]pyrimidin-7(8H)-one], the IC50 in assay [2] stood at 37 nM. In addition, the “Percentage of S phase cells” value in assay [6] (control siRNA-treated COV318 cells) is given as “significantly decreased”. Further, in assay [6] (p16 knocked down COV318 cells), the “Percentage of S phase cells as compared to DMSO control” value was “not significantly decreased”.

Values taken from patent publication US11427567B2, “Imidazolyl pyrimidinylamine compounds as CDK2 inhibitors” (Incyte Corporation, priority 2019, dated 2022).
